From US4882357A, “Novel N-(substituted-phenyl)-5-(substituted-2,5-dimethylphenoxy)-2,2-dimethylp entanamides” (Warner-Lambert Company, priority 1988, dated 1989)

Columns and labels:
[1] = molecular target: T1, acyl-CoA:cholesterol acyltransferase (ACAT) (Oryctolagus cuniculus, UniProt G1SFD9); experiment: inhibition of esterification of cholesterol by ACAT (cholesteryl oleate formation), rabbit intestinal microsomal fraction; type: biochemical; conditions: endogenous cholesterol, exogenous 14C-oleoyl-CoA, read-out: IC50 (concentration of test compound required to inhibit cholesteryl oleate formation to 50% of control)
T1 construct: rabbit intestinal microsomal fraction; from tissue; host or cells: rabbit intestine, microsomal fraction
T1 sequence (G1SFD9 1-524): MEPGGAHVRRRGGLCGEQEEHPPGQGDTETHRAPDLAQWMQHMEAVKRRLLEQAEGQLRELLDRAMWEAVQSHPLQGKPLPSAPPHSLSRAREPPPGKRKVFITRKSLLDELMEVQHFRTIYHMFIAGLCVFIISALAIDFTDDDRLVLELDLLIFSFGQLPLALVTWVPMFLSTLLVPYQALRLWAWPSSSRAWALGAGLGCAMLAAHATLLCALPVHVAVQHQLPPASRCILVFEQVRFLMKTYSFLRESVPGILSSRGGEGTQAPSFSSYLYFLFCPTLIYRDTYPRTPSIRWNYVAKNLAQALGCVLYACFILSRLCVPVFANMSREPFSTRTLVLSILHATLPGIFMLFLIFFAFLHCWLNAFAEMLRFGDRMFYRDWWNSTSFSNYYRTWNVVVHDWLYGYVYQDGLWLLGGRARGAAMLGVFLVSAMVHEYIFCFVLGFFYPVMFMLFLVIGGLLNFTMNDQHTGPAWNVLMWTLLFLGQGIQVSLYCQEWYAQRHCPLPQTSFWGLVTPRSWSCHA
Experimental: The compounds of the present invention were tested for their ability to inhibit the esterification of cholesterol by the enzyme acyl-CoA:cholesterol acyltransferase (ACAT). The data in the table below is expressed as IC50 values, i.e., the concentration of test compound required to inhibit cholesteryl oleate formation to 50% of control.
The in vitro test employed is more fully described in Field, F. J. and Salome, R. G., Biochemica et Biophysica Acta, 712, pp 557-570 (1982). The assay evaluates the ability of a test compound to inhibit the esterification of cholesterol using endogenous cholesterol of a rabbit intestinal microsomal fraction and exogenous ^14 C-oleoyl-CoA as reactants.

HDL = experiment: elevation of HDL, test drug versus gemfibrozil; type: in vivo, rats; conditions: 50 mg/kg test drug vs 50 mg/kg gemfibrozil; 1 = as effective as gemfibrozil
Experimental: Additionally, the elevation of HDL is reported in the table as a ratio of the elevation of HDL effected by a dose of 50 mg/kg of the test drug divided by the elevation of HDL effected by a 50 mg/kg dose of gemfibrozil which is used as a control in each experiment. [formula] Thus, a figure of 1 means that the test drug was as effective as gemfibrozil in elevating HDL. […] The test procedure is described in U.S. Pat. No. 4,413,011.

[2] = tested on: patients with elevated cholesterol levels; conditions: cited from earlier work

Row | SMILES | IC50 [1] [µM] | ratio of the elevation of HDL effected by test drug divided by the elevation of HDL effected by gemfibrozil (HDL) | effect on LDL and HDL ([2]; in words) | reduction of the rate of heart attack and sudden cardiac death ([2]; patients with elevated cholesterol levels, five years) [%]
1 | COc1ccccc1NC(=O)C(C)(C)CCCOc1cc(C)ccc1C [Example 1, 5-(2,5-dimethylphenoxy)-N-(2-methoxyphenyl)-2,2-dimethylpentanamide] | 14 | 0.31 |  | 
2 | COc1cc(C)ccc1NC(=O)C(C)(C)CCCOc1cc(C)ccc1C [Example 1a, 5-(2,5-dimethylphenoxy)-N-(2-methoxy-4-methylphenyl)-2,2-dimethylpentanamide] | 6 | 0.80 |  | 
3 | Cc1ccc(NC(=O)C(C)(C)CCCOc2cc(C)ccc2C)c(C)c1 [Example 1b, 5-(2,5-Dimethylphenoxy)-N-(2,4-dimethylphenyl)-2,2-dimethylpentanamide] | 8 | 1.29 |  | 
4 | COc1ccc(NC(=O)C(C)(C)CCCOc2cc(C)ccc2C)cc1OC [Example 1c, N-(3,4-Dimethoxyphenyl)-5-(2,5-dimethylphenoxy)-2,2-dimethylpentanamide] | 3 | 1.10 |  | 
5 | CCOc1ccccc1NC(=O)C(C)(C)CCCOc1cc(C)ccc1C [Example 1d, 5-(2,5-dimethylphenoxy)-N-(2-ethoxyphenyl)-2,2-dimethylpentanamide] | 5 | 1.08 |  | 
6 | CCCCCCOc1ccccc1NC(=O)C(C)(C)CCCOc1cc(C)ccc1C [Example 1f, 5-(2,5-dimethylphenoxy)-N[2-(hexyloxy)phenyl]-2,2-dimethylpentanamide] | 10 | 0.42 |  | 
7 | Cc1ccc(C)c(OCCCC(C)(C)C(=O)Nc2ccc(F)cc2F)c1 [Example 1g, N-(2,4-Difluorophenyl)-5-(2,5-dimethylphenoxy)-2,2dimethylpentanamide] | 7 | 0.36 |  | 
8 | Cc1ccc(C)c(OCCCC(C)(C)C(=O)Nc2c(F)cc(F)cc2F)c1 [Example 1h, 5-(2,5-dimethylphenoxy)-2,2-dimethyl-N-(2,4,6-trifluorophenyl)pentanamide] | 0.8 | 0.74 |  | 
9 | Cc1ccc(C)c(OCCCC(C)(C)C(=O)Nc2ccc(C)cc2OC(C)C)c1 [Example 1j, 5-(2,5-Dimethylphenoxy)-2,2-dimethyl-N-[4-methyl-2-(1-methylethoxy)phenyl]pentanamide] | 8 | 0.84 |  | 
10 | Cc1ccc(C)c(OCCCC(C)(C)C(=O)Nc2ccc3c(c2)OCO3)c1 [Example 1k, N-1,3-Benzodioxol-5-yl-5-(2,5-dimethylphenoxy)-2,2dimethylpentanamide] | 6 | 1.13 |  | 
11 | COC(=O)C(C)(C)CCCOc1ccccc1NC(=O)C(C)(C)CCCOc1cc(C)ccc1C [Example 1l, 5-[2[[5-(2,5-dimethylphenoxy)2,2-dimethyl-1-oxopentyl]amino]phenoxy]-2,2-dimethylpentanoic acid, methyl ester] | 8 | 0.4 |  | 
12 | COC(=O)C(C)(C)CCCOc1cccc(NC(=O)C(C)(C)CCCOc2cc(C)ccc2C)c1 [Example 1m, 5-[3-[[5-(2,5-dimethylphenoxy)-2,2-dimethyl-1-oxopentyl]amino]phenoxy]-2,2-dimethylpentanoic acid, methyl ester] | 21 | 1.0 |  | 
13 | CCOC(=O)C=Cc1ccc(NC(=O)C(C)(C)CCCOc2cc(C)ccc2C)cc1 [Example 5, 3-[4-[[5-(2,5-Dimethylphenoxy)-2,2-dimethyl-1-oxopentyl]amino]phenyl]-2-propenoic acid, ethyl ester, reference compound] | 45 | 0.56 |  | 
14 | Cc1ccc(C)c(OCCCC(C)(C)C(=O)O)c1 [gemfibrozil] |  |  | both lowers LDL and elevates HDL | 34
